Laboratory results from US20250195687A1, “PEPTIDE-BASED PHOSPHATE BINDER FOR THE TREATMENT OF HYPERPHOSPHATEMIA” (B. G. NEGEV TECHNOLOGIES AND APPLICATIONS LTD., priority 2022, published 2025).

Columns and labels:
[1] = Colorimetric (molybdenum blue) phosphate binding in intestinal and gastric fluid simulants; details: pH=6 or pH=7.5 (clinical PhB at pH=7.5)
Excerpt: The binding efficiency of the SiO2-CysHex particles in intestinal and digestive fluid simulants was examined by a colorimetric method. The procedure was based on the determination of the amount of uncaptured phosphate from a solution of known initial phosphate concentration. A spectrophotometric assay referred to as the molybdenum blue reaction was employed. It emits a blue color whose intensity is linearly proportional to the amount of phosphate present in the solution allowing by measurement of color intensity and proper calibration, to determine phosphate concentration. The reaction involves the following two steps: • 1. PO4^3−+12(NH4)2MoO4+24H^+→(NH4)3PO4·12MoO3+21NH4^++12H2O • 2. […]
For this experiment, a phosphate assay kit (Sigma-Aldrich) with a stated concentration range between 0.005 mM and 0.025 mM phosphate was used. The kit included a 10 mM phosphate standard solution and a coloring reagent that reacts with phosphates to form a complex that could be measured and quantified by UV-VIS absorbance spectroscopy. The phosphate standard was used to prepare a calibration curve between the absorbance intensity at a wavelength of 650 nm and phosphate concentrations. […]
A volume of 20 μL of the supernatant filtrate (sec 4.3.3.1.2), 180 μL DI water, and 30 μL coloring reagent were added to a 96 well plate. Two duplicates of each sample were measured, and the resulting values were averaged. […]

[2] = 31P NMR phosphate peak widening by free peptide in intestinal fluid simulants; format: binding; details: for phosphate peak widening: peptide 13.1 mM, phosphate 2.6 mM
Excerpt: ^31P NMR-NMR relaxation is the process by which excited magnetic state nuclei return to their equilibrium distribution. At the start of an NMR experiment, the nuclei are “lined up” with the external magnetic field. When an electromagnetic RF field is activated on these nuclei, they resonate at a characteristic resonance frequency, and the NMR signal is created. At that instant, all the nuclei are in phase and coherent. However, due to small differences in their resonance frequencies, they will begin to dephase. The time it takes for the nuclei to dephase is measured by T2 the so-called spin-spin relaxation time. T2 is inversely proportional to Δω, the width of the resonance peak in the spectra measured at half the maximum height: Δω=2/T2. The more slowly a macromolecule tumbles, the shorter its T2; thus, big molecules have broader resonance peaks than small molecules. An increase in molecular size due to interaction or reduced mobility affects the T2 relaxation time and is manifested by widening the NMR signal.
In this study, phosphate-binding experiments of free (unattached to silica) peptides in intestinal fluid simulants as function of the surrounding pH were examined. Binding was determined by the widening of the relevant phosphate peaks in phosphorus NMR (^31P NMR) spectra. These experiments aimed to investigate the effect of the background solution containing many components on the ability of the peptide to bind phosphate. ^31P NMR experiments were preferred over standard ^1H NMR since in the former only one (phosphate) or at most two (phosphate and phospholipid) peaks are detected as opposed to the multitude of frequently overlapping, peaks in the spectra of the latter. […]
Samples were prepared by mixing the required amounts of phosphate stock solution, and FAS or FES solutions into one 1.5 mL Eppendorf tube, and phosphate stock, peptide stock, and FAS or FES solution into a second similar tube. in. The pH was measured and adjusted to the desired value as described above. […] The contents of each Eppendorf tube were analyzed separately by NMR as described below. […]

[3] = 31P NMR phospholipid peak widening by free peptide in FES solution; format: binding
Excerpt: ^31P NMR-NMR relaxation is the process by which excited magnetic state nuclei return to their equilibrium distribution. At the start of an NMR experiment, the nuclei are “lined up” with the external magnetic field. When an electromagnetic RF field is activated on these nuclei, they resonate at a characteristic resonance frequency, and the NMR signal is created. At that instant, all the nuclei are in phase and coherent. However, due to small differences in their resonance frequencies, they will begin to dephase. The time it takes for the nuclei to dephase is measured by T2 the so-called spin-spin relaxation time. T2 is inversely proportional to Δω, the width of the resonance peak in the spectra measured at half the maximum height: Δω=2/T2. The more slowly a macromolecule tumbles, the shorter its T2; thus, big molecules have broader resonance peaks than small molecules. An increase in molecular size due to interaction or reduced mobility affects the T2 relaxation time and is manifested by widening the NMR signal. […]
The first sample used for FES solution reference was composed of 1 mL FES solution which was placed in a 1.5 mL Eppendorf tube. […] The pH was measured using a pH electrode (Mettler Toledo, SevenComplex) and adjusted to the desired value by dropwise addition of HCl or NaOH solutions. […] The contents of each Eppendorf tube were analyzed separately by NMR as described below.
Solution ^31P NMR data were collected on a Bruker Avance III 400 MHz spectrometer (Bruker BioSpin, Germany). […] A capillary tube insert filled with phosphoric acid solution in D2O (10% v/v phosphoric acid in D2O/H2O) was used for calibration and inserted into the NMR tube that contained the measured sample. […] NMR data was analyzed using TopSpin software (Bruker).
The capability of a free unbound peptide to capture phosphate in the intestinal simulant solutions was examined using P NMR. […] As discussed above, binding is qualitatively evaluated by the decrease in T2 relaxation, or the corresponding widening of the peak associated with the phosphorus nuclei in the molecule and calculated as follows: […]

O=C([O-])[O-].O=C([O-])[O-].O=C([O-])[O-].[La+3].[La+3] [Lanthanum, Lanthanum carbonate]
Phosphate binding effectiveness ([1]; FAS): 4.1 mg phosphate/gr PhB | Phosphate binding effectiveness ([1]; FES): 0.9 mg phosphate/gr PhB

Cys-SGAGKT [CysHex]
phosphate peak widening ([2]; FAS solution): no widening | phosphate peak widening ([2]; FES solution): pH dependent and is maximal at pH values commensurate with values in the GI tract | pH range in which the peptide captures phosphate ([2]; only in FES): 7-8 | pH of lowest phospholipid binding ([3]; absence of phosphate): ~6 | phospholipid binding ([3]; absence of phosphate, 6.5 peptide molecules per phospholipid molecule, entire relevant pH range): binds the phospholipid quite effectively | phospholipid peak width (ratio) ([3]; pH=6, peptide 13.1 mM and phosphate 2.6 mM present, phospholipid 2 mM, average of three measurements): 0.93±0.15
